Reference: patent US20250032625A1, “HETEROBIFUNCTIONAL MOLECULES AS TEAD INHIBITORS” (Merck Patent GmbH, priority 2021, published 2025)
Where two headings read alike, the source gives them in different places.

Legend:
hsTEAD1 (209-426) = hsTEAD1 (209-426) (Homo sapiens (Human), UniProt P28347); experiment: Surface Plasmon Resonance (SPR) assay; type: binding; conditions: Biacore 4000, 15° C., 1:1 Langmuir model, read-out: KD TEAD1 (209-426)
Method: The kinetic and affinity parameters of protein-exemplary compound interactions were evaluated by SPR. hsTEAD1 (209-426) was immobilized onto a CM7 (Series S) sensor chip via the standard amine coupling procedure, at 15° C. Prior to immobilization, the carboxymethylated surface of the chip was activated with 400 mM 1-ethyl-3-(3-dimethylaminopropyl)-carbodiimide and 100 mM N-hydroxysuccinimide for 10 min. hsTEAD1 (209-426) was diluted to 11 μg/mL in 10 mM Bis-Tris at pH 6.5 and immobilized on the activated surface chip for 8 and 10 min, in order to reach 6000 to 9000 response units (RU). The remaining activated carboxymethylated groups were blocked with a 7 min injection of 1 M ethanolamine pH 8.5 after which the surface chip was washed with 0.5% (w/v) sodium dodecyl sulphate and 50 mM glycine. HBS-N, which consists of 10 mM HEPES pH 7.4 and 150 mM NaCl, was used as the background buffer during immobilization. Exemplary compounds were prediluted in DMSO, diluted 1:50 in running buffer (20 mM Tris pH 7.4, 150 mM NaCl, 1 mM DTT, 5 mM MgCl2, 0.1 mM EGTA, 0.05% CHAPS) and injected at ten different concentrations using two-fold dilution series, from 100 μM to 0.2 μM. A DMSO solvent correction (1%-3%) was performed to account for variations in bulk signal and to achieve high-quality data. Interaction analysis cycles consisted of a 240 sec sample injection (30 μL/min; association phase) followed by 600 sec of buffer flow (dissociation phase).
All sensorgrams were processed by first subtracting the binding response recorded from the control surface (reference spot), followed by subtracting of the buffer blank injection from the reaction spot. All datasets were fit to a simple 1:1 Langmuir interaction model to determine the kinetic rate constants, KD. Experiments were performed on a Biacore 4000 (Cytiva, Uppsala, Sweden) at 15° C. and the interactions were evaluated using the provided Biacore 4000 evaluation software.

TEAD1 in SK-HEP1 cells = TEAD1 in SK-HEP1 cells (Homo sapiens (Human), UniProt P28347); experiment: TEAD degradation in SK-HEP1 cell line (immunofluorescence); type: cell-based
TEAD1 in SK-HEP1 cells, sequence (P28347 whole entry, canonical isoform): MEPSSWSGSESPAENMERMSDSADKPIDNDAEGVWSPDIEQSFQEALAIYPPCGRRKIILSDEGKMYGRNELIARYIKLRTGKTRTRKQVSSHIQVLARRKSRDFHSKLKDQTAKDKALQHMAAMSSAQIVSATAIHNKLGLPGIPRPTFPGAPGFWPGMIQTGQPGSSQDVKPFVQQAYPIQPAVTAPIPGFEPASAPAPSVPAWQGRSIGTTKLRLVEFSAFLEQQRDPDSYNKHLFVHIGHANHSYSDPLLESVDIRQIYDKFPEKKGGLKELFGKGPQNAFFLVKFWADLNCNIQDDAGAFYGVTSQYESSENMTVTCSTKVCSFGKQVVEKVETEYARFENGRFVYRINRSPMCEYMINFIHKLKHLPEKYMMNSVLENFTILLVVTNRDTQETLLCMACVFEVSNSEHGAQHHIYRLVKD
Method: (§1) Degradation of TEAD isoform TEAD1 by exemplary compounds which has been determined at different time points in two different cell lines, SK-HEP1 and NCI-H226: For the assay, SK-HEP1 (ATCC HTB-52) and NCI-H226 (ATCC CRL-5826) cells were treated in duplicates with the test compounds in a 10-point dose, 1:3 dilution steps, with the top concentration starting at 30 uM (final concentration in assay). After either 16 or 24 hour incubation at 37° C., 95% rH, and 5% CO2, the cells were fixed with 4% PFA and TEAD1 levels were probed using immunofluorescence. The primary antibody used was Anti-TEF1 (BD, 610293) and the secondary antibody used was Alexa Fluor® 488 Goat Anti-Mouse IgG (H+L) (Molecular Probes, A-11001). Finally, the cell nuclei were co-stained by Hoechst 33258 (Invitrogen, H-3569) and imaged using a high content imager. The amount of TEAD degradation was determined by quantifying the fluorescence intensity levels of Anti-TEF1 in each individual cell per well. DC50 was calculated using curve fitting software Genedata Screener. Cell media: The SK-HEP1 cells were cultured in the following media: MEM, +10% FCS, +1× GlutaMAX, +100 μM NEAA, +10 mM HEPES, +0.5% Pen/Strep. The NCI-H226 cells were cultured in the following media: RPMI 1640, +10% FBS, +1× GlutaMAX, +10 mM HEPES, +0.5% Pen/Strep.

TEAD1 in NCI-H226 cells = TEAD1 in NCI-H226 cells (Homo sapiens (Human), UniProt P28347); experiment: TEAD degradation in NCI-H226 cell line (immunofluorescence); type: cell-based
TEAD1 in NCI-H226 cells, sequence (P28347 whole entry): as the sequence (P28347 whole entry, canonical isoform) above
Method: as §1

[1] = 24 hours, ranges, read-out: DC50 SK-HEP1
[2] = 24 hours, ranges, read-out: DC50 NCI-H226
[3] = 24 h incubation, read-out: DC50 SK-HEP1 24 h

hsTEAD1 (209-426), sequence (P28347 209-426): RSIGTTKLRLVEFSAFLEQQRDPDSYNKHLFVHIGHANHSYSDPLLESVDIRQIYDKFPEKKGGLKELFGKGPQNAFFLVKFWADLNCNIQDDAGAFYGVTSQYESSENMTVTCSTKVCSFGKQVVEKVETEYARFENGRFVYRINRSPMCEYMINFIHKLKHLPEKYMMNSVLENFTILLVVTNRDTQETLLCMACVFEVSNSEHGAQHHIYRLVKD

SMILES	Kd (hsTEAD1 (209-426))	DC50 (TEAD1 in SK-HEP1 cells; [1])	DC50 (TEAD1 in NCI-H226 cells; [2])	DC50 (TEAD1 in SK-HEP1 cells; [3])	DC50 (TEAD1 in NCI-H226 cells; 24 h incubation, read-out: DC50 NCI-H226 24 h)
Cn1cc2c3cc(C(=O)NCCOCCOCCNC(=O)CCCNc4cccc5c4CN(C4CCC(=O)NC4=O)C5=O)ccc3n(-c3ccc(C(F)(F)F)cc3)c2n1 (centres unmarked) [Compound 14, 4-{[2-(2,6-dioxopiperidin-3-yl)-1-oxo-2,3-dihydro-1H-isoindol-4-yl]amino}-N-(2-{2-[2-({2-methyl-8-[4-(trifluoromethyl)phenyl]-2H,8H-pyrazolo[3,4-b]indol-5-yl}formamido)ethoxy]ethoxy}ethyl) butanamide]	482 nM	–	–	–	–
Cc1ncsc1-c1ccc(CNC(=O)[C@@H]2C[C@@H](O)CN2C(=O)[C@@H](NC(=O)CCCCCCCCCNC(=O)c2ccc3c(c2)c2cn(C)nc2n3-c2ccc(C(F)(F)F)cc2)C(C)(C)C)cc1 [Compound 20, (2S,4R)-1-[(2S)-3,3-dimethyl-2-[10-({2-methyl-8-[4-(trifluoromethyl)phenyl]-2H,8H-pyrazolo[3,4-b]indol-5-yl}formamido)decanamido]butanoyl]-4-hydroxy-N-{[4-(4-methyl-1,3-thiazol-5-yl)phenyl]methyl}pyrrolidine-2-carboxamide]	–	100 to 1000 nM	100 to 1000 nM	190 nM	300 nM
Cc1ncsc1-c1ccc(CNC(=O)[C@@H]2C[C@@H](O)CN2C(=O)[C@@H](NC(=O)CCCCCc2cn(CCCCCCCNC(=O)c3ccc4c(c3)c3cn(C)nc3n4-c3ccc(C(F)(F)F)cc3)nn2)C(C)(C)C)cc1 [Compound 34, (2S,4R)-1-[(2S)-3,3-dimethyl-2-(6-{1-[7-({2-methyl-8-[4-(trifluoromethyl)phenyl]-2H,8H-pyrazolo[3,4-b]indol-5-yl}formamido)heptyl]-1H-1,2,3-triazol-4-yl}hexanamido)butanoyl]-4-hydroxy-N-{[4-(4-methyl-1,3-thiazol-5-yl)phenyl]methyl}pyrrolidine-2-carboxamide]	–	100 to 1000 nM	100 to 1000 nM	–	–
Cn1cc2c3cc(C(=O)NCCOCCOCCOCCOCCNc4cccc5c4CN(C4CCC(=O)NC4=O)C5=O)ccc3n(-c3ccc(C(F)(F)F)cc3)c2n1 (centres unmarked) [Compound 43, N-(14-{[2-(2,6-dioxopiperidin-3-yl)-1-oxo-2,3-dihydro-1H-isoindol-4-yl]amino}-3,6,9,12-tetraoxatetradecan-1-yl)-2-methyl-8-[4-(trifluoromethyl)phenyl]-2H,8H-pyrazolo[3,4-b]indole-5-carboxamide]	–	9000 to 30000 nM	100 to 1000 nM	–	–
Cc1ncsc1-c1ccc(CNC(=O)[C@@H]2C[C@@H](O)CN2C(=O)[C@@H](NC(=O)COCCOCCOCCOCCOCCOCCNC(=O)c2ccc3c(c2)c2cn(C)nc2n3-c2ccc(C(F)(F)F)cc2)C(C)(C)C)cc1 [Compound 32, (2S,4R)-1-[(2S)-3,3-dimethyl-2-[20-({2-methyl-8-[4-(trifluoromethyl)phenyl]-2H,8H-pyrazolo[3,4-b]indol-5-yl}formamido)-3,6,9,12,15,18-hexaoxaicosanamido]butanoyl]-4-hydroxy-N-{[4-(4-methyl-1,3-thiazol-5-yl)phenyl]methyl}pyrrolidine-2-carboxamide]	–	1000 to 3000 nM	1000 to 3000 nM	1100 nM	–

Now from value to molecule:

Kd (hsTEAD1 (209-426))	DC50 (TEAD1 in SK-HEP1 cells; [1])	DC50 (TEAD1 in NCI-H226 cells; [2])	DC50 (TEAD1 in SK-HEP1 cells; [3])	DC50 (TEAD1 in NCI-H226 cells; 24 h incubation, read-out: DC50 NCI-H226 24 h)	SMILES
–	100 to 1000 nM	100 to 1000 nM	–	–	Cc1ccc2c(c1)c1cc(C(=O)NCCOCCOCCOCCOCCNc3cccc4c3C(=O)N(C3CCC(=O)NC3=O)C4=O)ccc1n2-c1ccc(C(F)(F)F)cc1 (centres unmarked) [Compound 46, N-(14-{[2-(2,6-dioxopiperidin-3-yl)-1,3-dioxo-2,3-dihydro-1H-isoindol-4-yl]amino}-3,6,9,12-tetraoxatetradecan-1-yl)-6-methyl-9-[4-(trifluoro-methyl)phenyl]-9H-carbazole-3-carboxamide]
–	100 to 1000 nM	100 to 1000 nM	–	–	Cn1nc2c3cc(C(=O)NCCOCCOCCOCCOCCNc4cccc5c4C(=O)N(C4CCC(=O)NC4=O)C5=O)ccc3n([C@H]3CC[C@H](C(F)(F)F)CC3)c2n1 (some centres unmarked) [Compound 95, N-(14-{[2-(2,6-dioxopiperidin-3-yl)-1,3-dioxo-2,3-dihydro-1H-isoindol-4-yl]amino}-3,6,9,12-tetraoxatetradecan-1-yl)-2-methyl-4-[(1r,4r)-4-(trifluoromethyl)cyclohexyl]-2H,4H-[1,2,3]triazolo[4,5-b]indole-7-carboxamide]
–	1000 to 3000 nM	1000 to 3000 nM	–	–	Cc1ncsc1-c1ccc(CNC(=O)[C@@H]2C[C@@H](O)CN2C(=O)[C@@H](NC(=O)CCCOCCOCCOCCOCCNC(=O)c2ccc3c(c2)c2cn(C)nc2n3-c2ccc(C(F)(F)F)cc2)C(C)(C)C)cc1 [Compound 57, [(2S)-3,3-dimethyl-2-[1-({2-methyl-8-[4-(trifluoromethyl)phenyl]-2H,8H-pyrazolo[3,4-b]indol-5-yl}formamido)-3,6,9,12-tetraoxahexadecan-16-amido]butanoyl]-4-hydroxy-N-{[4-(4-methyl-1,3-thiazol-5-yl)phenyl]-methyl}pyrrolidine-2-carboxamide]
–	100 to 1000 nM	100 to 1000 nM	–	–	Cc1ncsc1-c1ccc([C@H](C)NC(=O)[C@@H]2C[C@@H](O)CN2C(=O)[C@@H](NC(=O)CCCCCc2cn(CCCCOCCNC(=O)c3ccc4c(c3)c3cn(C)nc3n4-c3ccc(C(F)(F)F)cc3)nn2)C(C)(C)C)cc1 [Compound 82, (2S,4R)-1-[(2S)-3,3-dimethyl-2-[6-(1 {4-[2-({2-methyl-8-[4-(trifluoro-methyl)phenyl]-2H,8H-pyrazolo[3,4-b]indol-5-yl}formamido)ethoxy]butyl}-1H-1,2,3-triazol-4-yl)hexanamido]butanoyl]-4-hydroxy-N-[(1S)-1-[4-(4-methyl-1,3-thiazol-5-yl)phenyl]ethyl]pyrrolidine-2-carboxamide]
–	3000 to 9000 nM	3000 to 9000 nM	–	–	Cc1ncsc1-c1ccc(CNC(=O)[C@@H]2C[C@@H](O)CN2C(=O)[C@@H](NC(=O)CCOCCC(=O)NCCOCCOCCNC(=O)c2ccc3c(c2)c2cn(C)nc2n3-c2ccc(C(F)(F)F)cc2)C(C)(C)C)cc1 [Compound 61, (2S,4R)-1-[(2S)-3,3-dimethyl-2-(3-{2-[(2-{2-[2-({2-methyl-8-[4-(trifluoro-methyl)phenyl]-2H,8H-pyrazolo[3,4-b]indol-5-yl}formamido)-ethoxy]ethoxy}ethyl)carbamoyl]ethoxy}propanamido)butanoyl]-4-hydroxy-N-{[4-(4-methyl-1,3-thiazol-5-yl)phenyl]methyl}pyrrolidine-2-carboxamide]
–	100 to 1000 nM	100 to 1000 nM	–	–	Cc1ncsc1-c1ccc(CNC(=O)[C@@H]2C[C@@H](O)CN2C(=O)[C@@H](NC(=O)CCCCCC(=O)NCCOCCOCCNC(=O)c2ccc3c(c2)c2nn(C)nc2n3-c2ccc(C(F)(F)F)cn2)C(C)(C)C)cc1 [Compound 55, N-[(2S)-1-[(2S,4R)-4-hydroxy-2-({[4-(4-methyl-1,3-thiazol-5-yl)phenyl]methyl}carbamoyl)pyrrolidin-1-yl]-3,3-dimethyl-1-oxobutan-2-yl]-N′-(2-{2-[2-({2-methyl-4-[5-(trifluoromethyl)pyridin-2-yl]-2H,4H-[1,2,3]triazolo[4,5-b]indol-7-yl}formamido)ethoxy]ethoxy}ethyl)-heptanediamide]
–	100 to 1000 nM	< 100 nM	–	–	Cn1nc2c3cc(C(=O)NCCOCCOCCOCCOCCNc4cccc5c4C(=O)N(C4CCC(=O)NC4=O)C5=O)ccc3n(-c3ccc(C(F)(F)F)cc3)c2n1 (centres unmarked) [Compound 45, N-(14-{[2-(2,6-dioxopiperidin-3-yl)-1,3-dioxo-2,3-dihydro-1H-isoindol-4-yl]amino}-3,6,9,12-tetraoxatetradecan-1-yl)-2-methyl-4-[4-(trifluoromethyl)phenyl]-2H,4H-[1,2,3]triazolo[4,5-b]indole-7-carboxamide]
